Test results taken from patent US20190040101A1, “COMPOUND FOR TREATING SEQUELAE OF ISCHEMIC CEREBRAL STROKE” (priority 2015, published 2019).
Residues, ends and D or L forms follow the SMILES beside them.

Legend:
[1] = test system: right cerebral artery ischemia/reperfusion model in rats; assay: Neurologic deficit score in the rat 1.5-hour ischemia/reperfusion model; type: in vivo, Sprague-Dawley (SD) rats; settings: 3.6 mg/kg intraperitoneal once a day
Protocol: (§1) Sprague-Dawley (SD) rats, male, weighing 280-320 g, clean, feeding, conditions: room temperature of 20-25° C., humidity of 30-60%, well ventilated, ad libitum diet; the animals were acclimatized in the feeding environment for three days prior to the experiment.
(§2) The rats were anesthetized with 4% chloral hydrate (350 mg/kg, ip.) and then were fixed in a supine position. A midline ventral neck incision was made, the right common carotid artery was separated and snared with two sutures for further use. Then, the internal carotid artery and external carotid artery were separated, and the external carotid artery was ligatured. The separated common carotid artery was ligatured at its proximal end with a thread, and the blood flow of the same was blocked at its distal end with a bulldog clamp. A small opening was cut therebetween and a nylon suture (4-0) which is heated at one end into a bead-like shape (having a diameter of <0.3 mm) was inserted into the small opening. […]
Neurologic deficit scores were assessed for the above experimental animals according to the following procedure before the beginning of experiment and 24 hours, 1 day, 3 days, 7 days, 14 days, 28 days, 56 days, and 112 days after the beginning of experiment; Score rules: see Zea Longer score and NSS score, full score of 10; • (i) Lifting an animal by tail: (full score of 1) […]

[2] = Body weight of rats in the 1.5-hour ischemia/reperfusion model; type: in vivo, Sprague-Dawley (SD) rats; settings: 3.6 mg/kg intraperitoneal once a day
Protocol: as §1
as §2, with “opening. The bulldog clamp was removed, and the nylon suture was gently advanced to the origin of the anterior cerebral artery (18-20 mm), thereby causing arterial ischemia in brain by blocking the blood supply of the cerebral artery. The skin was sutured and was sterilized with tincture of iodine.” for “opening.”

SMILES: CC(C)CC(NC(=O)C(CCC(N)=O)NC(=O)C(NC(=O)C(CO)NC(=O)C(Cc1c[nH]cn1)NC(=O)C(N)C(C)C)C(C)C)C(=O)NC(Cc1ccc(O)cc1)C(=O)O (stereo not shown) [compound of formula (III)] (H-VHSVQLY-OH; configuration not given here)
- neuroethology (neurologic deficit) score compared to the model group ([1]; I1.5R+1 week+dosing for 4 weeks, statistically significant in weeks 2, 3, 4, 5 and 7 after the operation, FIG. 4): gradually declined neuroethology score
- neurological score compared to the model group ([1]; I1.5R+2 weeks+dosing for 4 weeks, statistically significant at the fifth week after the operation, FIG. 6): declined from the beginning of the administration
- weight change compared to the model group ([2]; I1.5R+1 week+dosing for 4 weeks, FIG. 3): gradually increased weight
- weight change compared to the model group ([2]; I1.5R+2 weeks+dosing for 4 weeks, weight data not demonstrative (groups already differed before dosing), FIG. 5): gradually increased weight
